# Measured values published in patent US9951066B2, “Compositions, uses and methods for making them” (Pimera, Inc., priority 2014, dated 2018).
# pIC50: −log10 of the molar value.
# Test system: A375 cell line
# Assay: Alamar Blue cell viability assay, A375
# Format: cell-based
# Settings: Homo sapiens, A-375, 96 h, read-out: Pharmaceutical activity in A375 cell line IC50
# Protocol: Inhibitory activity on cell proliferation of representative compounds of the invention was determined using an Alamar Blue cell viability assay as described hereafter.
# 3000 cancer cells in 100 uL of cell culture media were plated in each well of a 96-well clear bottom, black wall cell culture-pretreated plate.
# The next day compounds are serially diluted (3-fold in cell culture media) across a 96-well polypropylene mother plate from row A to row F, to yield 6 concentrations (10 uM, 3.3 uM, 1.1 uM, 370 nM, 124 nM and 41 nM) for each test compound. Rows G and H contain only DMSO.
# Once titrations are made, the media in plates with cells were disposed and 100 μL of drug dilutions are transferred to plates with cells. After a ninety six-hour incubation at 37° C., 10 uL of resazurin solution from Alamar Blue Cell Viability kit (Invitrogen, Carlsbad, Calif.) was added to the media and cells were incubated at 37° C. for three more hours. At the end of this incubation the production of resofurin was measured using Spectrmax M2 microplate reader (Molecular Devices, Sunnyvale, Calif.)
row,Structure (SMILES),pIC50
1,"CC(C)NC(=O)c1cc2ccc(N3CCCNCC3)nc2n2c1nc1ccccc12 [Compound 9B, 2-[1,4]Diazepan-1-yl-1,7,11b-triaza-benzo[c]fluorene-6-carboxylic acid isopropylamide]",5.30 to 6.00
2,CC(C)NC(=O)c1cc2ccc(N3CCN(C)CC3)nc2n2c1nc1ccccc12 [Compound 5D],5.00 to 5.30

# Same assay, conditions: Homo sapiens, A-375; Table 4; cell proliferation inhibition, Alamar Blue, 96 h incubation; read-out: Pharmaceutical activity in A375 cell line IC50
row,pIC50,Structure (SMILES)
1,5.00 to 5.30,"O=C(NCCN1CCOCC1)c1cc2cnccc2n2c1nc1ccccc12 [Compound 13F, 3,7,11b-Triaza-benzo[c]fluorene-6-carboxylic acid (2-morpholin-4-yl-ethyl)-amide]"
2,< 5.00,"O=C(c1cc2cc(F)cnc2n2c1nc1ccccc12)N1CCCNCC1 [Compound 7D, [1,4]Diazepan-1-yl-(3-fluoro-1,7,11b-triaza-benzo[c]fluoren-6-yl)-methanone]"
3,> 6.00,CNC(=O)c1cc2c(N3C[C@@H](C)N[C@@H](C)C3)ccnc2n2c1nc1ccccc12 [Compound 8D]
4,> 6.00,"CN(C)CCNC(=O)c1cc2cnccc2n2c1nc1ccccc12 [Compound 13D, 3,7,11b-Triaza-benzo[c]fluorene-6-carboxylic acid (2-dimethylamino-ethyl)-amide]"
5,> 6.00,O=C(NCCN1CCCC1)c1cc2cnccc2n2c1nc1ccccc12 [Compound 13G]
6,5.00 to 5.30,"CC(C)NC(=O)c1cc2cnccc2n2c1nc1ccccc12 [Compound 13C, 3,7,11b-Triaza-benzo[c]fluorene-6-carboxylic acid isopropylamide]"
7,5.30 to 6.00,"O=C(NCCN1CCCC1)c1cc2cc(F)cnc2n2c1nc1ccccc12 [Compound 7I, 3-Fluoro-1,7,11b-triaza-benzo[c]fluorene-6-carboxylic acid (2-pyrrolidin-1-yl-ethyl)-amide]"
8,> 6.00,"CNC(=O)c1cc2c(N3CCCN(C)CC3)ccnc2n2c1nc1ccccc12 [Compound 8B, 4-(4-Methyl-[1,4]diazepan-1-yl)-1,7,11b-triaza-benzo[c]fluorene-6-Carboxylic acid methylamide]"
9,5.30 to 6.00,"CNC(=O)c1cc2ccc(NCCN3CCOCC3)nc2n2c1nc1ccccc12 [Compound 11D, 2-(2-Morpholin-4-yl-ethylamino)-1,7,11b-triaza-benzo[c]fluorene-6-carboxylic acid methylamide]"
10,5.00 to 5.30,"NNC(=O)c1cc2ccc(NCCN3CCOCC3)nc2n2c1nc1ccccc12 [Compound 11C, 2-(2-Morpholin-4-yl-ethylamino)-1,7,11b-triaza-benzo[c]fluorene-6-carboxylic acid hydrazide]"
11,5.00 to 5.30,"CNC(=O)c1cc2ccc(N3CCC[N+](C)(C)CC3)nc2n2c1nc1ccccc12 [Compound 6A, 1,1-Dimethyl-4-(6-methylcarbamoyl-1,7,11b-triaza-benzo[c]fluoren-2-yl)-[1,4]diazepan-1-ium; iodide]"
12,5.30 to 6.00,"CN(C)CCNc1ccc2cc(C(=O)NN)c3nc4ccccc4n3c2n1 [Compound 12B, 2-(2-Dimethylamino-ethylamino)-1,7,11b-triaza-benzo[c]fluorene-6-carboxylic acid hydrazide]"
13,< 5.00,"O=C(NCCN1CCOCC1)c1cc2cc(F)cnc2n2c1nc1ccccc12 [Compound 7G, 3-Fluoro-1,7,11b-triaza-benzo[c]fluorene-6-carboxylic acid (2-morpholin-4-yl-ethyl)-amide]"
14,< 5.00,"CN1CCCN(C(=O)c2cc3cc(F)cnc3n3c2nc2ccccc23)CC1 [Compound 7C, (3-Fluoro-1,7,11b-triaza-benzo[c]fluoren-6-yl)-(4-methyl-[1,4]diazepan-1-yl)-methanone]"
15,5.30 to 6.00,"CN(C)CCNC(=O)c1cc2cc(F)cnc2n2c1nc1ccccc12 [Compound 7F, 3-Fluoro-1,7,11b-triaza-benzo[c]fluorene-6-carboxylic acid (2-dimethylamino-ethyl)-amide]"
16,5.00 to 5.30,"COCCCNC(=O)c1cc2cnccc2n2c1nc1ccccc12 [Compound 13E, 3,7,11b-Triaza-benzo[c]fluorene-6-carboxylic acid (3-methoxy-propyl)-amide]"
17,> 6.00,"Cc1nnc(-c2cc3ccc(N4CCCN(C)CC4)nc3n3c2nc2ccccc23)o1 [Compound 10E, 2-(4-Methyl-[1,4]diazepan-1-yl)-6-(5-methyl-[1,3,4]oxadiazol-2-yl)-1,7,11b-triaza-benzo[c]fluorine]"
18,> 6.00,"CNC(=O)c1cc2ccc(NCCN(C)C)nc2n2c1nc1ccccc12 [Compound 12C, 2-(2-Dimethylamino-ethylamino)-1,7,11b-triaza-benzo[c]fluorene-6-carboxylic acid methylamide]"
19,< 5.00,"O=C(O)c1cc2cc(F)cnc2n2c1nc1ccccc12 [Compound 7B, 3-Fluoro-1,7,11b-triaza-benzo[c]fluorene-6-carboxylic acid]"

# Further lines, the molecule ahead of its results:
row,Structure (SMILES),pIC50
1,CN1CCCN(c2ccc3cc(C(=O)Nc4nccs4)c4nc5ccccc5n4c3n2)CC1 [Compound 4A],5.00 to 5.30
2,CN1CCCN(c2ccc3cc(C(=O)NC#N)c4nc5ccccc5n4c3n2)CC1 [Compound 4C],> 6.00
3,"CN1CCCN(c2ccc3cc(C#N)c4nc5ccccc5n4c3n2)CC1 [Compound 3C, 2-(4-Methyl-[1,4]diazepan-1-yl)-1,7,11b-triaza-benzo[c]fluorene-6-carbonitrile]",> 6.00
4,"CN1CCN(c2ccc3cc(C(=O)NC4CC4)c4nc5ccccc5n4c3n2)CC1 [Compound 5E, 2-(4-Methyl-piperazin-1-yl)-1,7,11b-triaza-benzo[c]fluorene-6-carboxylic acid cyclopropylamide]",5.30 to 6.00
5,"CNNC(=O)c1cc2ccc(N3CCCN(C)CC3)nc2n2c1nc1ccccc12 [Compound 4D, 2-(4-Methyl-[1,4]diazepan-1-yl)-1,7,11b-triaza-benzo[c]fluorene-6-carboxylic acid N′-methyl-hydrazide]",> 6.00
6,"COCCNc1ccc2cc(C#N)c3nc4ccccc4n3c2n1 [Compound 3I, 2-(2-Methoxy-ethylamino)-1,7,11b-triaza-benzo[c]fluorene-6-carbonitrile]",5.30 to 6.00
7,"N#Cc1cc2ccc(NCCN3CCOCC3)nc2n2c1nc1ccccc12 [Compound 3E, 2-(2-Morpholin-4-yl-ethylamino)-1,7,11b-triaza-benzo[c]fluorene-6-carbonitrile]",5.30 to 6.00
8,"N#Cc1cc2ccc(NCCn3ccnc3)nc2n2c1nc1ccccc12 [Compound 3G, 2-(2-Imidazol-1-yl-ethylamino)-1,7,11b-triaza-benzo[c]fluorene-6-carbonitrile]",5.30 to 6.00
9,"CONC(=O)c1cc2ccc(N3CCCN(C)CC3)nc2n2c1nc1ccccc12 [Compound 4F, 2-(4-Methyl-[1,4]diazepan-1-yl)-1,7,11b-triaza-benzo[c]fluorene-6-carboxylic acid methoxy-amide]",> 6.00
10,CNC(=O)c1cc2ccc(N3CCN(C)CC3)nc2n2c1nc1ccccc12 [Compound 5C],5.30 to 6.00
11,CN1CCN(c2ccc3cc(C(=O)NN)c4nc5ccccc5n4c3n2)CC1 [Compound 5B],5.00 to 5.30
12,"CN1CCN(c2ccc3cc(C#N)c4nc5ccccc5n4c3n2)CC1 [Compound 3H, 2-(4-Methyl-piperazin-1-yl)-1,7,11b-triaza-benzo[c]fluorene-6-carbonitrile]",> 6.00
13,"[2H]C([2H])([2H])NC(=O)c1cc2ccc(N3CCCN(C)CC3)nc2n2c1nc1ccccc12 [Compound 4E, 2-(4-Methyl-[1,4]diazepan-1-yl)-1,7,11b-triaza-benzo[c]fluorene-6-carboxylic acid methyl-d3-amide]",5.30 to 6.00
14,"CN(C)C1CCN(c2ccc3cc(C#N)c4nc5ccccc5n4c3n2)C1 (centres unmarked) [Compound 3F, 2-(3-Dimethylamino-pyrrolidin-1-yl)-1,7,11b-triaza-benzo[c]fluorene-6-carbonitrile]",> 6.00
15,"N#Cc1cc2ccc(N3CCCNCC3)nc2n2c1nc1ccccc12 [Compound 3D, 2-[1,4]Diazepan-1-yl-1,7,11b-triaza-benzo[c]fluorene-6-carbonitrile]",> 6.00

# Same assay, conditions: Homo sapiens, A-375; cell proliferation inhibition, Alamar Blue, 96 h incubation; read-out: Pharmaceutical activity IC50 A375
row,pIC50,Structure (SMILES)
1,5.00 to 5.30,"CC(C)NC(=O)c1cc2ccc(N3CCCN(C)CC3)nc2n2c1nc1ccccc12 [Compound 2A, 2-(4-methyl-[1,4]diazepan-1-yl)-1,7,11b-triazabenzo[c]fluorene-6-carboxylic acid isopropylamide]"
2,5.30 to 6.00,"CN1CCCN(c2ccc3cc(C(=O)NCC4(C)COC4)c4nc5ccccc5n4c3n2)CC1 [Compound 2F, 2-(4-Methyl-[1,4]diazepan-1-yl)-1,7,11b-triazabenzo[c]fluorene-6-carboxylic acid (3-methyloxetan-3-ylmethyl)-amide]"
3,5.30 to 6.00,"CN1CCCN(c2ccc3cc(C(=O)NC4CCOCC4)c4nc5ccccc5n4c3n2)CC1 [Compound 2D, 2-(4-methyl-[1,4]diazepan-1-yl)-1,7,11b-triazabenzo[c]fluorene-6-carboxylic acid (tetrahydropyran-4-yl)-amide]"
4,5.30 to 6.00,"CN1CCCN(c2ccc3cc(C(=O)NC4CC4)c4nc5ccccc5n4c3n2)CC1 [Compound 2C, 2-(4-methyl-[1,4]diazepan-1-yl)-1,7,11b-triazabenzo[c]fluorene-6-carboxylic acid cyclopropylamide]"
5,5.00 to 5.30,"CC(NC(=O)c1cc2ccc(N3CCCN(C)CC3)nc2n2c1nc1ccccc12)C1CC1 (centres unmarked) [Compound 2B, 2-(4-Methyl-[1,4]diazepan-1-yl)-1,7,11b-triazabenzo[c]fluorene-6-carboxylic acid (1-cyclopropylethyl)-amide]"
